Experimental data: US5368864A, “Formulation of oxypurinol and/or its alkali and alkaline earth salts” (Henning Berlin GmbH Chemie- und Pharmawerk, priority 1988, dated 1994)

Key:
[1] = associated with sparing solubility; cited from earlier work
[2] = cited from earlier work
[3] = Solubility as a function of pH value and time as compared to crystalline active substance; type: physicochemical; settings: solids dispersion is test 3; for solubility at 1 h: 60 minutes
Description: (§1) The forms according to the invention were tested for solubility and rate of dissolution, respectively, in comparison to crystalline oxypurinol sodium monohydrate finely powdered in a mortar.
Solubility according to example 1 (test 3) as a function of pH value and
as compared to crystalline active substance (values in mg/liter)

[4] = Dissolution test (USP XXI dissolution tester) of oxypurinol sodium monohydrate and formulations in 0.1 N hydrochloric acid, spectrophotometric at 245 nm; type: physicochemical; settings: for Dissolved amount of active substance (cumulated values): 0.1 N HCl, 37° C.
Description: The dispersion of solids containing oxypurinol was mixed with the adjuvants indicated, and pressed to give tablets having a content of 150 mg of active substance. Two tablets, corresponding to 300 mg of oxypurinol sodium monohydrate, were tested for liberation of active substance.
as §1
United States Pharmacopoeia (USP XXI)
0.1 N hydrochloric acid
Measurements were effected spectrophotometrically at 245 nm.

[5] = Solubility and pH of aqueous solutions (background statements); type: physicochemical

O=c1[nH]c(=O)c2c[nH]nc2[nH]1 [Oxypurinol, 4,6-dihydroxypyrazolo[3,4-d]pyrimidine]
absorbability [1]: insufficient absorbability
solubility in water and digestive juice [2]: sparingly soluble

O=c1[nH]c(=O)c2c[nH]nc2[nH]1 [oxypurinol sodium monohydrate, Oxypurinol sodium monohydrate]
solubility at 5 min ([3]; pH = 1.5): 43 µg/mL
solubility at 10 min ([3]; pH = 1.5): 62 µg/mL
solubility at 5 min ([3]; pH = 3.0): 81 µg/mL
solubility at 10 min ([3]; pH = 3.0): 110 µg/mL
solubility at 1 h ([3]; pH = 3.0): 222 µg/mL
solubility at 5 min ([3]; pH = 4.5): 85 µg/mL
solubility at 10 min ([3]; pH = 4.5): 110 µg/mL
solubility at 1 h ([3]; pH = 4.5): 243 µg/mL
solubility at 5 min ([3]; pH = 6.5): 243 µg/mL
solubility at 10 min ([3]; pH = 6.5): 261 µg/mL
solubility at 1 h ([3]; pH = 6.5): 290 µg/mL
solubility at 5 min ([4]; 0.1 n hcl, after 5 minutes): 43 µg/mL
solubility at 1 h ([4]; 0.1 n hcl, after 60 minutes): 142 µg/mL
solubility at 24 h ([4]; 0.1 n hcl, after 24 hours, read-out: maximum solubility): ~280 µg/mL
solubility at 48 h ([4]; 0.1 n hcl, after another 24 hours, read-out: solubility as a constant for the substance): ~260 µg/mL
Dissolved amount of active substance (cumulated values) ([4]; 5 min): 43 mg/L
Dissolved amount of active substance (cumulated values) ([4]; 10 min): 62 mg/L
Dissolved amount of active substance (cumulated values) ([4]; 20 min): 88 mg/L
Dissolved amount of active substance (cumulated values) ([4]; 30 min): 115 mg/L
Dissolved amount of active substance (cumulated values) ([4]; 45 min): 126 mg/L
Dissolved amount of active substance (cumulated values) ([4]; 60 min): 142 mg/L
Dissolved amount of active substance (cumulated values) ([4]; 180 min): 207 mg/L
Dissolved amount of active substance (cumulated values) ([4]; 24 hrs): 280 mg/L
Dissolved amount of active substance (cumulated values) ([4]; 48 hrs): 263 mg/L
rate of dissolution ([4]; measurement time of 5 minutes): about 43 mg/5 min
pH value of aqueous solutions ([5]; aqueous solution): 9.5
solubility ([5]; water, 25° C., read-out: concentration permitted in aqueous solutions): ~15000 µg/mL
